Experimental data taken from patent US20130252950A1, “TARGETING MTOR SUBSTRATES IN TREATING PROLIFERATIVE DISEASES” (President and Fellows of Harvard College, priority 2010, published 2013).

What was measured:
wild-type MEFs = test: Ku-0063794 screen: SILAC quantitative phosphoproteomics in rapamycin-inhibited, insulin-stimulated cells
Akt phosphorylation = test: Immunoblot of insulin-induced Akt phosphorylation; conditions: FIG. 5C
Experimental: For the Ku-screen, wild-type MEFs were grown in light and heavy SILAC media and starved overnight for serum. […] Both the light and heavy cell were subsequently stimulated with insulin for 15 minutes and samples were pooled and analyzed by quantitative mass spectrometry.
Samples were boiled for 5 min and subject to electrophoresis using the standard SDS-PAGE method. Proteins were then transferred to a nitrocellulose membrane (Whatman). The membranes were blocked with a TBST buffer (25 mM Tris-HCl, pH 7.5, 150 mM NaCl, 0.05% Tween 20) containing 3% nonfat dried milk, and probed overnight with primary antibodies at 4° C. and for 1 h at RT with peroxidase-conjugated secondary antibodies. Blots were developed using enhanced chemiluminescence, exposed on autoradiograph film and developed using standard methods.

[1] = test system: Grb10 S501/S503 phosphorylation in TSC2−/− cells; test: Immunoblot of Grb10 S501/S503 phosphorylation with phospho-specific antibody; assay type: cell-based, mouse; conditions: serum-starved TSC2−/− cells, two hours; rapamycin 20 nM, staurosporine 100 nM, LY294002 20 μM, BEZ235 500 nM, torin 100 nM, pp 242 1 μM, Ku-0063794 at indicated concentrations
Experimental: (§1) FIG. 2. Phosphorylation of Grb10 at S501/S503 is sensitive to rapamycin inhibition. (A) Identification of a doubly-phosphorylated rapamycin-sensitive Grb10 peptide (MNILSS*QS*[…] , SEQ ID NO: 2, * indicates phosphorylation sites) corresponding to S501/S503. (B) Evolutionary conservation of Grb10 S501/S503 among vertebrate species. […] TSC2−/− cells were starved for serum and treated with 20 nM rapamycin for the indicated times. Sequences, from top to bottom: SEQ ID NO: 1723 to SEQ ID NO: 1727, respectively. (D) Phosphorylation of Grb10 at S501/501 is sensitive to amino acids withdrawal. TSC2−/− cells were starved in DMEM overnight and then transferred to D-PBS for the indicated times. (E) Phosphorylation of Grb10 at S501/S503 is not affected by the pan-kinase inhibitor, staurosporine. TSC2−/− cells were starved for serum and treated with either 100 nM staurosporine or Ku-0063794 at the indicated concentrations for two hours. (F) Grb10 phosphorylation is increased upon growth factor stimulation. Wild type (WT) mouse embryonic fibroblasts (MEFs) were starved for serum overnight and then were stimulated with insulin (100 nM) or serum (10%) for 15 min. The cells were preincubated with the indicated compounds for two hours. […] Rapamycin (rapa) was used at 20 nM. (G) Grb10 phosphorylation at S501/S503 is sensitive to various mTOR kinase inhibitors. TSC2−/− cells were serum-starved and treated with the indicated compounds for two hours. The concentrations of the compounds were rapamycin 20 nM, LY (LY294002) 20 μM, BEZ235 (NVP-BEZ235) 500 nM, torin 100 nM, and pp 242 1 μM.
We developed a phosphospecific antibody (FIGS. 9A and 9B) to further characterize these two Grb10 phosphorylation sites. […] The dephosphorylation kinetics correlated well with that of S6K.
We further investigated the effects of growth factor stimulation and rapamycin-mediated inhibition on Grb10 phosphorylation in other cell types. Wild-type MEFs were serum-starved and then stimulated with either insulin or 10% serum, both of which led to a robust increase in Grb10 phosphorylation (FIG. 2F). […] It was previously reported that Grb10 S503 (S476 in human Grb10 isoform 3) was phosphorylated by ERK1/2 in vitro (13).

[2] = test system: rpS6 phosphorylation in TSC2−/− cells; test: Immunoblot of rpS6 phosphorylation (S6K activity); assay type: cell-based, mouse; conditions: serum-starved TSC2−/− cells, 100 nM staurosporine, two hours
Experimental: as §1, with “TSC2−/− cells were serum-starved and treated with the indicated compounds for two hours. The concentrations of the compounds were rapamycin 20 nM, LY (LY294002) 20 μM, BEZ235 (NVP-BEZ235) 500 nM, torin 100 nM, and pp 242 1 μM.” left out

[3] = test system: Grb10 protein in TSC2−/− cells; test: Immunoblot of Grb10 protein level after long-term treatment; assay type: cell-based, mouse; conditions: TSC2−/− cells, endogenous Grb10
Source text: FIG. 3. mTOR-mediated Grb10 phosphorylation is important for Grb10 stability. (A) Grb10 interacts with raptor, but not rictor. HA-tagged Grb10 was co-transfected with Myc-raptor or Myc-rictor in HEK293T cells. Cells were lysed in lysis buffer A, and the lysates were subjected to immunoprecipitation using anti-HA antibody conjugated beads. Raptor and rictor were probed with an antibody against the Myc-tag. (B) Grb10 is phosphorylated by mTOR in vitro. […] Phosphorylation of Grb10 at S501/S503 was detected by using the phospho-specific antibody against these two sites. (C) Long-term rapamycin treatment leads to Grb10 degradation in TSC2−/− cells. Note that Grb10 protein expression levels inversely correlated with Akt activity. Grb10 is highly overexpressed in TSC2−/− cells. mRNA level was determined using quantitative RT-PCR based on three biological replicate experiments. (D) Knockdown of raptor in TSC2−/− cells decreased Grb10 protein level. Cells were starved overnight and the lysates were probed with the antibodies indicated. (E) Grb10 is highly overexpressed in TSC2−/− cells. (F) S501A/S503A mutant is unstable compared with the wild-type or the S501D/S503D mutant. The same amount of DNA was transfected into HEK293T cells. […] Endogenous Grb10 was detected using an antibody that preferentially recognizes mouse Grb10 whereas the Grb10 DD mutant (of human origin) was detected using an anti-HA antibody.
(§2) FIG. 9. Phosphorylation of Grb10 at S501/S503 regulates its stability. […] Preincubation of the antibody with the […] completely eliminated the immunoreactivity. (B) Further validation of the phospho-specific antibody raised against the Grb10 S501/S503 sites. Grb10 WT, S501A/S503A (AA) and S501D/S503D (DD) were transfected into HEK239T cells and were probed with the antibody. Note that this antibody detected wild type (WT) Grb10, but neither of the mutant proteins. (C) Treatment of TSC2−/− cells with various mTOR kinase inhibitors led to Grb10 degradation. […] (E) Grb10 is highly overexpressed in TSC1−/− cells compared with their wild-type counterparts. (F) rapamycin treatment of TSC2−/− cells stably expressing wild type (WT) Grb10 led to lower levels of both endogenous and exogenous Grb10.
In addition, long-term treatment with mTOR kinase inhibitors, including LY-294002, NVP-BEZ235, torin and pp 242 all led to reduced Grb10 protein expression (FIG. 9C). Similar results were obtained in TSC1−/− MEFs (FIG. 9D). In contrast, we found Grb10 was highly overexpressed in TSC2−/− and TSC1−/− MEFs compared with their wild-type counterparts (FIGS. 3E and 9E), correlating with elevated mTORC1 activity in these cells. […]

[4] = test system: phospho-mTOR S2481 in TSC2−/− cells; test: Immunoblot of mTOR S2481 phosphorylation; assay type: cell-based, mouse; conditions: starved TSC2−/− cells; 20 nM rapamycin acute treatment; pp 242 two hours
[5] = test system: Grb10 protein in TSC1−/− cells; test: Immunoblot of Grb10 protein level in TSC1−/− cells; assay type: cell-based, mouse
Experimental: as §2
In addition, long-term treatment with mTOR kinase inhibitors, including LY-294002, NVP-BEZ235, torin and pp 242 all led to reduced Grb10 protein expression (FIG. 9C). Similar results were obtained in TSC1−/− MEFs (FIG. 9D). In contrast, we found Grb10 was highly overexpressed in TSC2−/− and TSC1−/− MEFs compared with their wild-type counterparts (FIGS. 3E and 9E), correlating with elevated mTORC1 activity in these cells.

[6] = test system: ERK in wild type (WT) MEFs; test: Immunoblot of ERK activity after growth factor stimulation; assay type: cell-based, mouse; conditions: serum-starved WT MEFs, AZD6244 5 μM two hours, insulin or serum 15 min
Experimental: as §1, with “TSC2−/− cells were serum-starved and treated with the indicated compounds for two hours. The concentrations of the compounds were rapamycin 20 nM, LY (LY294002) 20 μM, BEZ235 (NVP-BEZ235) 500 nM, torin 100 nM, and pp 242 1 μM.” left out

[7] = test system: Grb10 S501/S503 phosphorylation in wild type (WT) MEFs; test: Immunoblot of Grb10 phosphorylation after insulin or serum stimulation; assay type: cell-based, mouse; conditions: serum-starved WT MEFs, preincubated two hours (rapamycin 20 nM, AZD6244 5 μM), insulin 100 nM or serum 10% 15 min
Experimental: as §1, with “TSC2−/− cells were serum-starved and treated with the indicated compounds for two hours. The concentrations of the compounds were rapamycin 20 nM, LY (LY294002) 20 μM, BEZ235 (NVP-BEZ235) 500 nM, torin 100 nM, and pp 242 1 μM.” left out

[8] = molecular target: T1, Myc-tagged rictor (pRK5-Myc-Rictor) (UniProt Q6R327 1-1708); test: co-immunoprecipitation with anti-HA beads from co-transfected HEK293T cells, anti-Myc blot
T1 construct: Co-overexpressed with HA-Grb10 in HEK293T cells; not shown: Myc tag
T1 sequence (Q6R327 whole entry): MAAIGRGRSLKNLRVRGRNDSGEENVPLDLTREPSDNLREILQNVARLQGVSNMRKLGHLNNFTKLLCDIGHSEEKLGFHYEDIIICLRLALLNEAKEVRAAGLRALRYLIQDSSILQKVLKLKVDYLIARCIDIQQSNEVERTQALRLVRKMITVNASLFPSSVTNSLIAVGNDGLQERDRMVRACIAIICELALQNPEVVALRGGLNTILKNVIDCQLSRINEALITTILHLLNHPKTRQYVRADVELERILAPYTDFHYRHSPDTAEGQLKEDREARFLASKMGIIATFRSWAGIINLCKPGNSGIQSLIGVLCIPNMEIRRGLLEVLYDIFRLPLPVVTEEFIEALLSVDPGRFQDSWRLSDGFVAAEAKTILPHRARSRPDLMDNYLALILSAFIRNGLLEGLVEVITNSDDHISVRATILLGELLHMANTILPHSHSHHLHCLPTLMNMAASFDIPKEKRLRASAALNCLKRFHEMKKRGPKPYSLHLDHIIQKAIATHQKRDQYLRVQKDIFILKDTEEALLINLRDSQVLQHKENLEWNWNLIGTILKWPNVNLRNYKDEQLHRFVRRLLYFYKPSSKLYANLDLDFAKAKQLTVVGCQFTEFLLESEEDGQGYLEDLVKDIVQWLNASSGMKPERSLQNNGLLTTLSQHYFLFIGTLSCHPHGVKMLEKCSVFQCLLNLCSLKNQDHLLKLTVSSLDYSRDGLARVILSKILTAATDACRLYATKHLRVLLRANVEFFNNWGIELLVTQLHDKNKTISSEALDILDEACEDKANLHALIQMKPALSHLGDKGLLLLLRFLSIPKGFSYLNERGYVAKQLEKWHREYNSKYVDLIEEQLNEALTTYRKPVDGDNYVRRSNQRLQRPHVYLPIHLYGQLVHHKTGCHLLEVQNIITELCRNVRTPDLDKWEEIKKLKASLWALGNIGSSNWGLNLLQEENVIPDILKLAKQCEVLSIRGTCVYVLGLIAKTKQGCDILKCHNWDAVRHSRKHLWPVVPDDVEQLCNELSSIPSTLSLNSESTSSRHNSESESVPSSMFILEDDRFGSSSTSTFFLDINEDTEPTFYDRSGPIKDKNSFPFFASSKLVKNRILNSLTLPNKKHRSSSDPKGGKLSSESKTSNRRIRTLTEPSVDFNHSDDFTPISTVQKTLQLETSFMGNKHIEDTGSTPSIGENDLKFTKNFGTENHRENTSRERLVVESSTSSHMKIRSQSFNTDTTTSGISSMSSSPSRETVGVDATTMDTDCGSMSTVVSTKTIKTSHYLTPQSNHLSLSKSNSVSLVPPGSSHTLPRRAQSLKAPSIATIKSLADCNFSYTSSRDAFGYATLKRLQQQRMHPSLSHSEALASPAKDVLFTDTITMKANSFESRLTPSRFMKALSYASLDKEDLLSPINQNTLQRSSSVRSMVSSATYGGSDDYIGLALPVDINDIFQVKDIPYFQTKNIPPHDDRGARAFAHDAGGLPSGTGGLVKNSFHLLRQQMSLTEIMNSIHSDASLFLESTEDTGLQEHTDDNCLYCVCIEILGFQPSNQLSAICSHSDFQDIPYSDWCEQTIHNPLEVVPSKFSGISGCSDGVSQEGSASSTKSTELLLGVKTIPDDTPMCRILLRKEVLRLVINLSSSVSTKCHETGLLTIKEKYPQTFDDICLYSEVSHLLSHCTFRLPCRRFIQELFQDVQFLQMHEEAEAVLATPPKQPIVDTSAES

[9] = downregulated phosphorylation, wt MEFs, 20 nM rapamycin + 2 μM Ku-0063794 2 h vs rapamycin alone, insulin 15 min

COc1ccc(-c2ccc3c(N4CCOCC4)nc(N4C[C@@H](C)O[C@@H](C)C4)nc3n2)cc1CO [Ku-0063794]
4EBP T36/T45 phosphorylation (FIG. 6A) (wild-type MEFs; Ku-0063794 screen): completely abolished
intensity of T70 singly phosphorylated 4EBP1 peptide (wild-type MEFs; Ku-0063794 screen): did not change
rpS6 S235/236 phosphorylation (Class I site) (wild-type MEFs; Ku-0063794 screen, rapamycin-inhibited background): not further decreased
Median (treated/ctrl) fold-change of phosphopeptide DRSSS*APNVHINTIEPVNIDDLIR, Braf S312 (wild-type MEFs; [9]): 2.1 fold
Median (treated/ctrl) fold-change of phosphopeptide Eif4ebp1 T36, T45 (wild-type MEFs; [9]): 7.2 fold
Median (treated/ctrl) fold-change of phosphopeptide Eif4ebp2 S65 (wild-type MEFs; [9]): 6.8 fold
Median (treated/ctrl) fold-change of phosphopeptide LGS*FGSITR, Flnc S2234 (wild-type MEFs; [9]): 2.4 fold
Median (treated/ctrl) fold-change of phosphopeptide LNT*SDFQK, Akt1s1 T247 (wild-type MEFs; [9]): 31.3 fold
Median (treated/ctrl) fold-change of phosphopeptide TAS*GSS*VTSLEGTR, Ndrg1 S330, S333 (wild-type MEFs; [9]): 4.1 fold
Median (treated/ctrl) fold-change of phosphopeptide TGS*ESSQTGASATSGR, Eif4b S422 (wild-type MEFs; [9]): 2.2 fold
Median (treated/ctrl) fold-change of phosphopeptide TTS*FAESCKPVQQPSAFGSMK, Gsk3β S9 (wild-type MEFs; [9]): ~2.2 fold
insulin-induced Akt phosphorylation (Akt phosphorylation): inhibits
Grb10 S501/S503 phosphorylation (immunoblot) [1]: dose-dependent dephosphorylation

CN[C@@H]1C[C@H]2O[C@@](C)([C@@H]1OC)n1c3ccccc3c3c4c(c5c6ccccc6n2c5c31)C(=O)NC4 [staurosporine]
rpS6 phosphorylation (S6K activity) [2]: complete loss
Grb10 S501/S503 phosphorylation (immunoblot) [1]: No change

CC(C)n1nc(-c2cc3cc(O)ccc3[nH]2)c2c(N)ncnc21 [pp 242]
Grb10 protein levels after long-term treatment [3]: reduced
Grb10 S501/S503 phosphorylation (immunoblot) [1]: completely abolished
mTOR S2481 phosphorylation (immunoblot) [4]: completely ablated

Cn1c(=O)n(-c2ccc(C(C)(C)C#N)cc2)c2c3cc(-c4cnc5ccccc5c4)ccc3ncc21 [NVP-BEZ235]
Grb10 protein levels after long-term treatment [3]: reduced
level of Grb10 in TSC1−/− cells [5]: decreased level
Grb10 S501/S503 phosphorylation (immunoblot) [1]: completely abolished

Cn1cnc2c(F)c(Nc3ccc(Br)cc3Cl)c(C(=O)NOCCO)cc21 [AZD6244]
activities of ERK [6]: completely abolished
insulin- or serum-induced Grb10 S501/S503 phosphorylation [7]: no effect

CCC(=O)N1CCN(c2ccc(-n3c(=O)ccc4cnc5ccc(-c6cnc7ccccc7c6)cc5c43)cc2C(F)(F)F)CC1 [torin]
Grb10 protein levels after long-term treatment [3]: reduced
Grb10 S501/S503 phosphorylation (immunoblot) [1]: completely abolished

B1: HA-tagged Grb10 (human growth factor receptor-bound protein 10, wild type) (other, UniProt Q13322-3 1-536, looked up)
chain: MNASLESLYSACSMQSDTVPLLQNGQHARSQPRASGPPRSIQPQVSPRQRVQRSQPVHILAVRRLQEEDQQFRTSSLPAIPNPFPELCGPGSPPVLTPGSLPPSQAAAKQDVKVFSEDGTSKVVEILADMTARDLCQLLVYKSHCVDDNSWTLVEHHPHLGLERCLEDHELVVQVESTMASESKFLFRKNYAKYEFFKNPMNFFPEQMVTWCQQSNGSQTQLLQNFLNSSSCPEIQGFLHVKELGKKSWKKLYVCLRRSGLYCSTKGTSKEPRHLQLLADLEDSNIFSLIAGRKQYNAPTDHGLCIKPNKVRNETKELRLLCAEDEQTRTCWMTAFRLLKYGMLLYQNYRIPQQRKALLSPFSTPVRSVSENSLVAMDFSGQTGRVIENPAEAQSAALEEGHAWRKRSTRMNILGSQSPLHPSTLSTVIHRTQHWFHGRISREESHRIIKQQGLVDGLFLLRDSQSNPKAFVLTLCHHQKIKNFQILPCEDDGQTFFSLDDGNTKFSDLIQLVDFYQLNKGVLPCKLKHHCIRVAL
notes: Expressed by transfection in HEK293T cells; The phospho-specific antibody recognises it in the form phosphorylated at S501/S503 (mouse isoform 1 numbering) in cells; also called WT-Grb10; Grb10 WT; not shown: HA tag from vector pKH3
binding result [8]: no binding
